Results: US20070232609A1, “Novel Antiparasitic Combination of Active Compounds” (BAYER HEALTHCARE AG, priority 2004, published 2007)

Test system: Eimeria acervulina, E. maxima, E. tenella
Test: Cage experiment on coccidiosis/chicks
Assay type: in vivo
Conditions: for Mortality %: day -3 to 8 (9) p.i.; for % efficacy (total score): 0% no action, 100% full action; for Dropping score / Lesion score: assessment 0 to 6
Method: The efficacy of the compounds according to the invention can be confirmed, for example, in cage experiments with the following experimental arrangement, in which the animals are treated with the respective individual components and with the mixtures of the individual components.
An active compound-containing feed is prepared such that the required amount of active compound is basically mixed with a nutritionally balanced animal feed, e.g. with the chick feed indicated below.
Cage Experiment on Coccidiosis/Chicks
8- to 12-day-old male chicks (e.g. LSL Brinkschulte/Senden) which have been reared coccidia-free receive the compounds according to the invention (test substances) in the concentration indicated in ppm with the feed from 3 days before (day −3) infection (=a.i.) until 8 (9) days after infection (=p.i.). 3 animals are kept in each cage. One or more groups of this type are employed per dose. Infection is carried out by means of a stomach tube directly into the crop with approximately 100 000 sporulated oocysts of Eimeria acervulina and with approximately 30 000 oocysts each of E. maxima and 40 000 sporulated oocysts of E. tenella. These are highly virulent strains. The exact infection dose is adjusted so that, if possible, one of three experimentally infected untreated chicks dies due to the infection. For assessment of the efficacy, the following criteria are taken into account: weight increase from the start of the experiment to the end of the experiment, death rate due to infection, macroscopic assessment of the faeces with respect to diarrhea and excretion of blood on days 5 and 7 p.i. (assessment 0 to 6), macroscopic assessment of the intestinal mucosa, in particular of the appendices (assessment 0 to 6) and the oocyst excretion as well as the proportion (in %) of the oocysts sporulating in the course of 24 hours. The number of oocysts in the faeces was determined with the aid of a McMaster counting chamber (see Engelbrecht and coworkers “Parasitologische Arbeitsmethoden in Medizin und Veterinärmedizin” [Parasitological Working Methods in Medicine and Veterinary Medicine], Akademie-Verlag, Berlin (1965)). The individual findings are related to the untreated non-infected control groups and a total score is calculated (cf. A. Haberkorn (1986), pp. 263 to 270 in Research in Avian Coccidiosis ed. L. R. McDougald, L. P. Joyner, P. L. Long, Proceedings of the Georgia Coccidiosis Conference, Nov. 18-20, 1985, Athens/Georgia USA).
In the column “ppm”, the concentration of the active compound employed in the feed is indicated in ppm.
In the column “mortality”, the percentage of the dead animals is indicated under % and the number of dead animals/animals employed in the experiment is indicated under n.
In the column “weight % of not inf. control”, the ratio of the weight of the treated animals to the weight of the non-infected control group is indicated.
In the columns “dropping scores”, “lesion score” and “oocyst control”, individual details of the action are given.
In the column “% efficacy”, the total score is assessed; 0% means no action, 100% means full action.

FC(F)(F)c1nc2c(Cl)cc3c(c2[nH]1)OC(F)(F)C(F)(F)O3 [(I-A)*]
Mortality n (dead animals/animals employed) (1 ppm in feed): 0/3 | Oocysts in % of inf. control (1 ppm in feed): 36.0 % of inf. control | Weight in % of not inf. control (1 ppm in feed): 16 % of not inf. control | Mortality % (1 ppm in feed): 0% | % efficacy (total score) (1 ppm in feed): 15.7% | Dropping score (1 ppm in feed): 6 | Lesion score (1 ppm in feed): 6 | Mortality n (dead animals/animals employed) (2.5 ppm in feed): 0/3 | Oocysts in % of inf. control (2.5 ppm in feed): 80.7 % of inf. control | Weight in % of not inf. control (2.5 ppm in feed): 41 % of not inf. control | Mortality % (2.5 ppm in feed): 0% | % efficacy (total score) (2.5 ppm in feed): 12.3% | Dropping score (2.5 ppm in feed): 6 | Lesion score (2.5 ppm in feed): 6

N#CC(c1ccc(Cl)cc1)c1c(Cl)cc(-n2ncc(=O)[nH]c2=O)cc1Cl (stereo not shown) [Diclazuril]
Mortality n (dead animals/animals employed) (0.05 ppm in feed): 0/3 | Oocysts in % of inf. control (0.05 ppm in feed): 17.0 % of inf. control | Weight in % of not inf. control (0.05 ppm in feed): 86 % of not inf. control | Mortality % (0.05 ppm in feed): 0% | % efficacy (total score) (0.05 ppm in feed): 69.3% | Dropping score (0.05 ppm in feed): 0 | Lesion score (0.05 ppm in feed): 0 | Mortality n (dead animals/animals employed) (0.1 ppm in feed): 0/3 | Oocysts in % of inf. control (0.1 ppm in feed): 14.0 % of inf. control | Weight in % of not inf. control (0.1 ppm in feed): 92 % of not inf. control | Mortality % (0.1 ppm in feed): 0% | % efficacy (total score) (0.1 ppm in feed): 77.0% | Dropping score (0.1 ppm in feed): 0-2 | Lesion score (0.1 ppm in feed): 0
